Measurements from PubChem BioAssay (NCI).
Several values for one entry are separate records, joined by “and”; a condition that tells them apart may be missing. Equal entries are not always repeated.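 Values below derive from 48-hour exposures of cells grown in 96-well plates, with endpoints linearly interpolated between the two concentrations bracketing the appropriate inhibition level. GI50 is the concentration that inhibits growth by half. At the TGI there is no net growth.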 Where a SMILES comes first, the peptide text is derived from it. The star is where a group is joined. Boc = CC(C)(C)OC(=O)*; nBu = CCCC*

Assays:
Test in all cases: NCI anticancer screen, dose series, 48 h
[1] = system: SF-295 CNS
[2] = system: MDA-MB-435
[3] = system: SK-MEL-5 melanoma
[4] = system: UO-31 renal
[5] = system: TK-10 renal
[6] = system: IGROV1 ovarian
[7] = system: OVCAR-8 ovarian
[8] = system: KM12 colon
[9] = system: A549 NSCLC
[10] = system: EKVX NSCLC
[11] = system: NCI-H23 lung

O=C(O)c1cc2ccccc2c(N=Nc2ccc(S(=O)(=O)Nc3ncccn3)cc2)c1O
TGI [1]: > 100 µM
TGI [2]: > 100 µM
TGI [3]: > 100 µM
TGI [4]: > 100 µM
TGI [5]: > 100 µM
TGI [6]: > 100 µM
TGI [7]: > 100 µM
TGI [8]: > 100 µM
TGI [9]: > 100 µM
TGI [10]: > 100 µM

C#C[C@]1(O)CC[C@H]2[C@@H]3CCc4cc(O)ccc4[C@H]3CC[C@@]21C
TGI [1]: 74.8 µM
TGI [3]: 52.2 µM
TGI [5]: > 100 µM
TGI [6]: > 100 µM
TGI [11]: 69.4 µM
TGI [7]: > 100 µM
TGI [8]: > 100 µM
TGI [9]: > 100 µM
TGI [10]: > 100 µM

CCOc1nc2c(N3CCCC3)nc(N3CCNCC3)nc2nc1NCc1ccccc1
TGI [1]: 3.37 µM
TGI [2]: 2.72 µM
TGI [3]: 2.71 µM
TGI [4]: 2.6 µM
TGI [5]: 5.58 µM
TGI [6]: 2.64 µM
TGI [11]: 3.45 µM
TGI [7]: 4.1 µM
TGI [8]: 3.08 µM
TGI [9]: 4.26 µM
TGI [10]: 4.33 µM

C/C(C=O)=C/[C@@]1(C)O[C@@H](C)[C@@](C)(O)[C@@H]1O
TGI [1]: > 100 µM
TGI [2]: > 100 µM
TGI [3]: > 100 µM
TGI [4]: 4.71 µM
TGI [5]: > 100 µM
TGI [6]: > 100 µM
TGI [11]: > 100 µM
TGI [7]: 40 µM
TGI [8]: > 100 µM
TGI [9]: > 100 µM
TGI [10]: > 100 µM

CN1CCC(C(O)(c2ccccc2)c2ccc(Br)cc2)CC1 (stereo unspecified)
TGI [1]: 45.7 µM
TGI [2]: 30.7 µM
TGI [3]: 27.9 µM
TGI [4]: 33.1 µM
TGI [5]: 98.7 µM
TGI [6]: > 100 µM
TGI [11]: > 100 µM
TGI [7]: > 100 µM
TGI [8]: 43.2 µM
TGI [9]: > 100 µM
TGI [10]: > 100 µM

N#C/C(=C(/O)CCl)c1nc2ccccc2o1
TGI [1]: 6.74 µM
TGI [2]: 10.8 µM
TGI [3]: 3.83 µM
TGI [4]: 12.7 µM
TGI [5]: > 100 µM
TGI [6]: 4.09 µM
TGI [11]: 25.4 µM
TGI [7]: 14.9 µM
TGI [8]: 53.3 µM
TGI [9]: 34.8 µM

COc1ccc2nc3cc(Cl)ccc3c(NCCCN3CCN(CCCNc4ccc5nnn6c7ccccc7c(=O)c4c56)CC3)c2c1
TGI [1]: > 25 µM
TGI [2]: > 25 µM
TGI [3]: > 25 µM
TGI [4]: > 25 µM
TGI [5]: > 25 µM
TGI [6]: > 25 µM
TGI [11]: > 25 µM
TGI [7]: > 25 µM
TGI [8]: > 25 µM
TGI [9]: > 25 µM
TGI [10]: > 25 µM

Nc1nc(SCC(=O)c2ccc(Br)cc2)c2[nH]cnc2n1
TGI [1]: > 100 µM
TGI [2]: > 100 µM
TGI [3]: 60.3 µM
TGI [4]: > 100 µM
TGI [5]: 56.8 µM
TGI [6]: 50.8 µM
TGI [11]: > 100 µM
TGI [7]: > 100 µM
TGI [8]: > 100 µM
TGI [9]: > 100 µM
TGI [10]: > 100 µM

COc1ccc(CCn2cncn2)cc1
TGI [1]: > 100 µM
TGI [3]: > 100 µM
TGI [4]: > 100 µM
TGI [5]: > 100 µM
TGI [6]: > 100 µM
TGI [11]: > 100 µM
TGI [8]: > 100 µM
TGI [9]: > 100 µM
TGI [10]: > 100 µM

CCCCCCCCCCCCCCCc1nc(=S)[nH][nH]1
TGI [4]: > 100 µM
TGI [5]: > 100 µM
TGI [11]: > 100 µM
TGI [8]: > 100 µM
TGI [10]: > 100 µM

CCCCOc1ccc(CC(NC(=O)OC(C)(C)C)C(=O)NC(C)C(=O)NC(Cc2ccccc2)C(=O)NCC(N)=O)cc1 (stereo unspecified) (Boc-Y(nBu)AFG-NH2; configuration not given here)
TGI [1]: > 100 µM
TGI [2]: > 100 µM
TGI [3]: > 100 µM
TGI [4]: > 100 µM
TGI [5]: > 100 µM
TGI [6]: > 100 µM
TGI [11]: > 100 µM
TGI [7]: > 100 µM
TGI [8]: > 100 µM
TGI [9]: > 100 µM

CC1(C)OC[C@@H]([C@@]2(COC(c3ccccc3)(c3ccccc3)c3ccccc3)CC=CC(=O)O2)O1
TGI [1]: > 100 µM
TGI [2]: > 100 µM
TGI [4]: > 100 µM
TGI [5]: > 100 µM
TGI [11]: > 100 µM
TGI [7]: > 100 µM
TGI [8]: > 100 µM
TGI [9]: > 100 µM
TGI [10]: 83.8 µM

COc1cc(C2S/C(=C/c3ccccc3)C(=O)N2c2cccc(NC(C)=O)c2)cc(OC)c1OC (stereo unspecified)
TGI [1]: > 100 µM
TGI [2]: 47.2 µM
TGI [3]: > 100 µM
TGI [4]: > 100 µM
TGI [5]: > 100 µM
TGI [11]: > 100 µM
TGI [7]: > 100 µM
TGI [8]: 82 µM
TGI [9]: > 100 µM
TGI [10]: 53.2 µM

O=[N+]([O-])c1ccc(N=Nc2c(O)[nH]c3ccccc23)c([N+](=O)[O-])c1
TGI [1]: 25.1 µM
TGI [2]: > 100 µM
TGI [3]: > 100 µM
TGI [4]: 36.6 µM
TGI [5]: 27.4 µM
TGI [6]: 24.2 µM
TGI [11]: 25.8 µM
TGI [7]: 27.8 µM
TGI [8]: > 100 µM
TGI [9]: 28 µM
TGI [10]: 20.7 µM

COC(=O)c1c(O)ccc2c1c1c(n2Cc2cc(OC)cc(OC)c2)C(=O)c2ccccc2C1=O
TGI [1]: 32.7 µM
TGI [2]: 12.9 µM
TGI [3]: 26.7 µM
TGI [4]: 40.5 µM
TGI [5]: 41.1 µM
TGI [6]: 22 µM
TGI [11]: 27 µM
TGI [7]: 90.3 µM
TGI [8]: 13.6 µM
TGI [9]: 31.3 µM
TGI [10]: 51.5 µM

CC(=O)c1ccc(Nc2c3ccccc3nc3occc23)cc1
TGI [2]: < 0.01 µM
TGI [3]: 3.91 µM
TGI [4]: > 100 µM
TGI [5]: 15.7 µM
TGI [6]: 0.607 µM
TGI [11]: 17.1 µM
TGI [7]: 7.01 µM
TGI [8]: 1.59 µM
TGI [9]: > 35.1 µM
TGI [10]: > 45.9 µM

O=c1c2cc(O)ccc2n2nnc3ccc(NCCNCCO)c1c32
TGI [1]: > 45.5 µM and 35.2 µM
GI50 [3]: 12.9 µM and 2.39 µM
TGI [3]: 28.9 µM and 11.7 µM
TGI [4]: > 100 µM and 70.2 µM
GI50 [5]: 3.75 µM and 9.62 µM
TGI [5]: > 50 µM and 60.8 µM
GI50 [6]: 14.4 µM and 5.57 µM
TGI [6]: > 78.7 µM and 39.1 µM
TGI [11]: 42.3 µM and 20.2 µM
TGI [7]: 42 µM and 17.7 µM
TGI [8]: > 85.3 µM and 25.2 µM
GI50 [9]: 22.9 µM and 5.95 µM
TGI [9]: > 100 µM and 28.9 µM
TGI [10]: 97 µM and 48.1 µM

CN(CCc1ccccn1)c1ccc2c(c1)C(=O)c1ccccc1-2
TGI [1]: > 100 µM
TGI [2]: > 100 µM
TGI [3]: 98.3 µM
TGI [4]: > 100 µM
TGI [5]: > 100 µM
TGI [6]: > 100 µM
TGI [11]: > 100 µM
TGI [7]: > 100 µM
TGI [8]: > 100 µM
TGI [9]: > 100 µM
TGI [10]: > 100 µM

CN(C)c1ccc(-c2ccc(-c3ccc(C(=N)N)cn3)o2)cc1
GI50 [1]: 2 µM
TGI [1]: 3.81 µM
GI50 [2]: 1.24 µM
TGI [2]: 2.5 µM
GI50 [3]: 1.58 µM
TGI [3]: 3 µM
GI50 [4]: 1.48 µM
TGI [4]: 2.91 µM
GI50 [5]: 1.95 µM
TGI [5]: 3.39 µM
GI50 [6]: 1.89 µM
TGI [6]: 3.6 µM
GI50 [8]: 1.43 µM
TGI [8]: 3.01 µM
GI50 [9]: 1.89 µM
TGI [9]: 3.75 µM

COc1ccc(C2C3CCc4ccccc4C3=NN2S(=O)(=O)c2cccc(C(=O)O)c2OC)cc1 (stereo unspecified)
TGI [1]: 35.1 µM
TGI [2]: 4.15 µM
TGI [3]: > 100 µM
TGI [4]: > 100 µM
TGI [5]: > 100 µM
TGI [6]: > 100 µM
TGI [11]: > 100 µM
TGI [7]: > 100 µM
TGI [8]: > 100 µM
TGI [9]: > 100 µM
TGI [10]: > 100 µM
